Values of other authors in US6440395B1, “Antiplaque mouth rinse” (priority 1992, dated 2002).

Compound | solubility in water and alcohol (water and alcohol, stated in words) | solubility in water (in water at 25° C.)
CCCCCCCCCCCCCCCC[n+]1ccccc1 [CPC, cetyl pyridinium chloride] | highly soluble | –
Oc1cc(Cl)ccc1Oc1ccc(Cl)cc1Cl [Triclosan, 2,4,4′-trichloro-2′-hydroxydiphenyl ether] | – | less than 1 % by weight
